Laboratory results from publication PMC4686814 (Nature communications, 2015).
One block for each molecule: values may come before it.

Columns and labels:
[1] = target: T1, MsVps4ΔMIT (Metallosphaera sedula, UniProt A4YHC5); experiment: ITC; type: binding
T1 construct: gene Msed_1672

[2] = target: T1, MsVps4ΔMIT; experiment: ITC, two-site model; type: binding
[3] = target: the molecule itself; experiment: SEC; Superose 6; hVPS4B E235Q and mutants of it at 100 µM with 1 mM ATP and 5 mM MgCl2

T1 sequence (A4YHC5 entry or part of it, stated change not applied): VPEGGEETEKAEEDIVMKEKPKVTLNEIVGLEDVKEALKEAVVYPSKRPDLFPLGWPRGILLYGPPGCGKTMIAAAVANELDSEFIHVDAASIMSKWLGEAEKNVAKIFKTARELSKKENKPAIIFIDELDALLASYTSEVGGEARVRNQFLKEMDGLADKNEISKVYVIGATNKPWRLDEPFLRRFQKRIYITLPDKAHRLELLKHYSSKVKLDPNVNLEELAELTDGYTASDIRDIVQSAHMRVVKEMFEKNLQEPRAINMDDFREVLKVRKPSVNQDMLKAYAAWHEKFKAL

Kd [1]: 3.3 µM
Molecule: Nc1ncnc2c1ncn2[C@@H]1O[C@H](COP(=O)(O)OP(=O)(O)OP(=O)(O)O)[C@@H](O)[C@H]1O [ATP]

Kd [2]: 400 nM
Molecule: Nc1ncnc2c1ncn2[C@@H]1O[C@H](COP(=O)(O)OP(=O)(O)O)[C@@H](O)[C@H]1O [ADP]

B1: hVPS4B E235Q Ile124Glu (enzyme, human, UniProt O75351 1-444, looked up)
chain: MSSTSPNLQKAIDLASKAAQEDKAGNYEEALQLYQHAVQYFLHVVKYEAQGDKAKQSIRAKCTEYLDRAEKLKEYLKNKEKKAQKPVKEGQPSPADEKGNDSDGEGESDDPEKKKLQNQLQGAEVIERPNVKWSDVAGLEGAKEALKEAVILPIKFPHLFTGKRTPWRGILLFGPPGTGKSYLAKAVATEANNSTFFSISSSDLVSKWLGESEKLVKNLFQLARENKPSIIFIDQIDSLCGSRSENESEAARRIKTEFLVQMQGVGVDNDGILVLGATNIPWVLDSAIRRRFEKRIYIPLPEPHARAAMFKLHLGTTQNSLTEADFRELGRKTDGYSGADISIIVRDALMQPVRKVQSATHFKKVRGPSRADPNHLVDDLLTPCSPGDPGAIEMTWMDVPGDKLLEPVVSMSDMLRSLSNTKPTVNEHDLLKLKKFTEDFGQEG
stoichiometry N [3]: 6
